Experimental data from patent US9643977B2, “Necroptosis inhibitors and methods of use therefor” (President and Fellows of Harvard College, priority 2011, dated 2017).
Where a SMILES comes first, the peptide text is derived from it. The star is where a group is joined. Cbz = O=C(OCc1ccccc1)*; CH2F = FC*

What was measured:
[1] = system: TNFα production in J774 cells; assay: TNFα ELISA, J774 cells treated with zVAD.fmk (cell lysate and supernatant); format: cell-based, murine; conditions: FIG. 1
Experimental: The role of RIP1 kinase in the regulation of TNFα induction was investigated. zVAD.fmk is a caspase inhibitor that induces TNFα expression in various cell types. Murine macrophage J774 cells were treated with 20 μM zVAD.fmk and 10 μM of necrostatin and RIP1 inhibitor Nec-1 for the various periods of time. Cell lysates were extracted and analyzed by TNFα specific ELISA. As depicted in FIG. 1, treatment with zVAD.fmk induces an upregulation in TNFα protein levels as measured by ELISA in the cell lysate.

L929 cells [2] = assay: Cell viability by ATP assay, L929 cells treated with Smac mimetic SM-164; format: cell-based
Experimental: (§1) Smac mimetic compounds are IAP antagonists that induce the production of TNFα. Smac mimetic compounds induce the autoubiquitination and degradation of cIAP1. […] This cell death was inhibited by treatment with 10 μM Nec-1, or with 0.2 μg/ml or 1.0 μg/ml of TNFα neutralizing antibody (FIG. 2A).

[3] = system: TNFα production in L929 cells; assay: TNFα ELISA on cell lysates, L929 cells treated with SM-164; format: cell-based
Experimental: as §1

L929 cells [4] = assay: Cell viability by ATP assay, L929 cells transfected with Traf2 siRNA; format: cell-based; conditions: 10 μM, 48 hours, FIG. 3A
Experimental: (§2) In the TNFα signaling pathway, cIAP1, the target of Smac mimetic compounds, interacts closely with another protein, Traf2. L929 cells were transfected with Traf2 siRNA, treated with 10 μM Nec-1 or 1.0 μg/ml anti-TNFα antibody for 48 hours and cell viability measured by ATP assay. […] This death was also dependent on TNFα production, as it was inhibited by treatment with a TNFα neutralizing antibody or with knockdown of TNFR1 (FIGS. 3A and 3B). […] One such treatment is lipopolysaccharide (LPS), a component of the bacterial outer membrane. […] However, treatment of such cells with 10 μM Nec-1 has no effect on TNFα production in this case (FIG. 4).

[5] = system: TNFα production in J774 cells; assay: TNFα ELISA, J774 cells treated with LPS; format: cell-based, murine; conditions: 10 μM, J774 cells with 1 μg/ml LPS, cell lysate, FIG. 4
Experimental: as §2

L929 cells [6] = assay: Cell survival by CellTiter-Glo, L929 cells treated with CD154 and/or IFNγ; format: cell-based; conditions: 10 μM, 32 hrs, CD154 0.1 μg/ml, FIG. 5
Experimental: To test the involvement of CD40 in necroptosis, L929 cells were treated with CD154 (0.1 μg/ml), IFNγ (100 U/ml) and/or TNFα neutralizing antibody (1 μg/ml) alone or in combination and with or without Nec-1 (10 μM) for 32 hrs. Following treatment, cell survival was determined by CellTiter-Glo (Promega). As depicted in FIG. 5, the death of L929 cells induced by either the presence of either CD154 alone or by the presence of both CD154 and IFNγ was inhibited by Nec-1. Thus, RIP1 kinase selectively mediates intracellular signaling downstream of CD40 stimulation

[7] = system: TNFα secretion by splenic macrophages; assay: TNFα ELISA, splenic macrophages stimulated by CD154 and IFNγ; format: cell-based, C57BL/6 mouse; conditions: 10 μM, pretreated 1 hour, then 24 hours 1 μg/ml CD154 and 100 U/ml IFNγ, FIG. 6
Experimental: To further explore the role of RIP1 kinase in mediating CD40 signaling, the effect of necrostatins on the production of TNFα by primary macrophages stimulated by CD154 was tested. Splenocytes isolated from a C57BL/6 mouse were cultured for 10 days in RPMI media with 10% FBS and 50 μM 2-mercaptoethanol. The attached cells were harvested as splenic macrophages. The macrophages were pretreated for 1 hour with 10 μ[…] Nec-1, 10 μM Nec-21, 10 μM Nec-29, or 1 μM Nec-12, then treated for 24 hours with 1 μg/ml recombinant CD154 (CD40L, R&D Systems) and/or 100 U/ml IFNγ as. TNFα secretion in the cell culture supernatant was analyzed by ELISA assay. As depicted in FIG. 6, the production of TNFα in splenic macrophages stimulated by CD154 in the presence of IFNγ was inhibited by Nec-1 as well as by the three other necrostatins tested, Nec-12, Nec-21 and Nec-29. These experiments indicate that RIP1 is involved in mediating TNFα production downstream of CD40 activation.

[8] = system: TNFα production in BV2 cells; assay: TNFα mRNA by quantitative PCR, BV2 cells treated with Aβ42; format: cell-based; conditions: 10 μM, 30 minutes before Aβ42 200 nM, FIG. 10A
Experimental: (§3) The levels of TNFα mRNA were measured by quantitative PCR. B) Microglia primary cultures were incubated for 30 minutes with or without 10 μM Nec-1 prior to being treated with Aβ42 (200 nM). TNFα secretion was measured by ELISA. The data correspond to the mean±SD (N=3). C) Cell survival of microglia primary cultures treated with Aβ42 (200 nM) for indicated times with and without Nec1 was measured by CellTiter-Glo® assay. Error bars represent the mean of two different experiments.
(§4) The role played by RIP1 in the induction of TNFα production by amyloid-β in microglial cells was investigated.

[9] = system: TNFα secretion by microglia primary cultures; assay: TNFα ELISA, microglia primary cultures treated with Aβ42; format: cell-based; conditions: 10 μM, 30 minutes before Aβ42 200 nM, FIG. 10B
Experimental: as §3, §4

[10] = system: microglia primary cultures; assay: Cell survival by CellTiter-Glo, microglia primary cultures treated with Aβ42; format: cell-based; conditions: Aβ42 200 nM, FIG. 10C
Experimental: as §3, §4

L929 cells [11] = assay: Viability by ATP luminescence assay, L929 cells treated with CD40L and IFNγ; format: cell-based; conditions: 10 μM, 24 hours, 0.2 μg/ml CD40L, 100 U/ml IFNγ, FIG. 13A
Experimental: (§5) A, L929 cells were treated with 0.2 μg/ml CD40L, 100 U/ml IFNγ, and/or 1 μg/ml TNFα neutralizing antibody and then treated with 10 μM Nec-1 (right bar) or a DMSO control (left bar) for 24 hours. Viability was measure by ATP luminescence assay. B, BV-2 cells were pretreated with 100 U/ml IFNγ for 20 hours, and treated with 0.1 μg/ml CD40L for 4 or 8 hours. TNFα secretion was measured by ELISA.
The role of RIP1 in CD40L induced TNFα production was investigated.

[12] = system: TNFα secretion by BV-2 cells; assay: TNFα ELISA, BV-2 cells pretreated with IFNγ and treated with CD40L; format: cell-based; conditions: 100 U/ml IFNγ 20 hours, 0.1 μg/ml CD40L 4 or 8 hours, FIG. 13B
Experimental: as §5
To confirm the role of RIP1 in CD40L-induced TNFα production, BV-2 cells were pretreated with IFNγ and CD40L to induce TNFα production and then exposed to Nec-1.

## CN1C(=O)C(Cc2c[nH]c3ccccc23)NC1=S (stereo not shown) [Nec-1]
[1]; 10 μM co-treatment with 20 μM zVAD.fmk
  inhibition of zVAD.fmk-induced production of TNFα: almost completely inhibits
L929 cells [2]; 10 μM, L929 cells with 100 nM SM-164, FIG. 2A
  inhibition of SM-164-induced cell death: inhibited
[3]; co-treatment, FIG. 2B
  inhibition of SM-164-induced TNFα production: completely inhibited
L929 cells [4]
  inhibition of cell death induced by loss of Traf2: completely inhibit
[5]
  effect on LPS-induced TNFα production: no effect
L929 cells [6]
  inhibition of cell death induced by CD154 alone: inhibited
L929 cells [6]; IFNγ 100 U/ml
  inhibition of cell death induced by both CD154 and IFNγ: inhibited
[7]
  inhibition of TNFα production stimulated by CD154 in the presence of IFNγ: inhibited
[8]
  levels of TNFα (mRNA) after Aβ42 exposure: reduced levels of TNFα
[9]
  levels of TNFα (secretion) after Aβ42 exposure: reduced levels of TNFα
[10]
  effect on survival of microglia primary cells: minor protective effect
L929 cells [11]
  viability of cells cultured in IFNγ and CD40L: largely restored
[12]
  inhibition of CD40L-induced TNFα production: significantly inhibited

## CN[C@@H](C)C(=O)N[C@H]1CCCC[C@H]2CC[C@@H](C(=O)N[C@@H](c3ccccc3)c3cn(CCCCc4ccc(CCCCn5cc([C@@H](NC(=O)[C@@H]6CC[C@@H]7CCCC[C@H](NC(=O)[C@H](C)NC)C(=O)N76)c6ccccc6)nn5)cc4)nn3)N2C1=O [SM-164, reference compound]
L929 cells [2]; 100 nM, L929 cells, ATP assay
  cell death induced by treatment: undergo cell death
[3]; SM-164 treatment, ELISA on cell lysates
  TNFα production after treatment: induced an increase

## COC(=O)C[C@H](NC(=O)[C@H](C)NC(=O)[C@@H](NC(=O)OCc1ccccc1)C(C)C)C(=O)CF [zVAD.fmk, reference compound] (Cbz-Val-Ala-Asp(OMe)-CH2F)
[1]; 20 μM zVAD.fmk, ELISA in cell lysate
  TNFα protein levels after treatment: upregulation
